Values joined by “and” are separate entries in the source; they are usually repeats but may differ in a detail not shown here. Equal entries are not always repeated. Where two headings read alike, the source gives them in different places.
Tests used:
[1] = tested on: Candida albicans ATCC 10231; assay: Broth dilution MIC/MFC, reference fungal strain; type: cell-based; conditions: Candida albicans, ATCC10231
Procedure, shortened: (§1)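 Compounds were serially diluted in Mueller Hinton Broth 2, inoculated at 5 × 10^5 cfu/mL and incubated at 37 °C for 18 h. Samples were then plated on Tryptic Soy Agar for 48 h at 37 °C to obtain bactericidal or fungicidal endpoints.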

[2] = tested on: MSSA 59 biofilm; assay: Biofilm inhibition assay (crystal violet); type: cell-based, Staphylococcus aureus; conditions: MSSA 59, 4 × MIC
Protocol: (§2) For many decades, S. aureus has been identified as the most common etiologic agent of device related infections, associated with biofilm formation. These infections are hard to cure because the specific structure of biofilm confers resistance to the host immune response and to the action of antibiotics.
(§3) Then, 100 µL bacterial suspension prepared from fresh overnight culture by diluting with TSB to obtain the initial inoculum 2 × 10^6 CFU/mL was added. The plates were incubated for 24 h at 37 °C. After the incubation, the wells were discarded and were gently rinsed three times with PBS to remove planktonic staphylococcal cells. Then, contents of the wells were discarded and the biofilm was fixed with 200 µL methanol for 20 min and dried at room temperature for 30 min. The biofilm was stained by adding 200 µL 1.8% crystal violet solution for 15 min. After staining, the plates were rinsed with water and 200 µL bleaching solution (30% ethanol, 30% glacial acetic acid, 40% water) added for 15 min to dissolve the remaining crystal violet. A microplater reader was used to measure the absorbance of the adherent biofilm at 570 nm (OD570). […] The negative control included only the growth medium.

[3] = tested on: MSSA 58 biofilm; assay: Biofilm inhibition assay (crystal violet); type: cell-based, Staphylococcus aureus
Protocol: as §2, §3

[4] = tested on: MRSA 51 biofilm; assay: Biofilm inhibition assay (crystal violet); type: cell-based, Staphylococcus aureus
Protocol: as §2, §3

[5] = tested on: MRSA 52 biofilm; assay: Biofilm inhibition assay (crystal violet); type: cell-based, Staphylococcus aureus; conditions: MRSA 52, 4 × MIC
Protocol: as §2, §3

[6] = tested on: Staphylococcus aureus ATCC 43300 (MRSA); assay: Broth dilution MIC/MBC, reference strain; type: cell-based; conditions: Staphylococcus aureus
Procedure, shortened: as §1

[7] = tested on: Staphylococcus epidermidis PCM 2118; assay: Broth dilution MIC/MBC, reference strain; type: cell-based
Procedure, shortened: as §1

[8] = tested on: Escherichia coli ATCC 11229; assay: Broth dilution MIC/MBC, reference strain; type: cell-based; conditions: Escherichia coli, ATCC11229
Procedure, shortened: as §1

[9] = tested on: Staphylococcus aureus ATCC 6538 (MSSA); assay: Broth dilution MIC/MBC, reference strain; type: cell-based; conditions: Staphylococcus aureus
Procedure, shortened: as §1

[10] = tested on: Proteus vulgaris NCTC 4635; assay: Broth dilution MIC/MBC, reference strain; type: cell-based; conditions: Proteus vulgaris, NCTC4635
Procedure, shortened: as §1

[11] = tested on: Pseudomonas aeruginosa ATCC 15442; assay: Broth dilution MIC/MBC, reference strain; type: cell-based; conditions: Pseudomonas aeruginosa, ATCC15442
Procedure, shortened: as §1

[12] = tested on: Enterococcus faecalis ATCC 11420; assay: Broth dilution MIC/MBC, reference strain; type: cell-based; conditions: Enterococcus faecalis, ATCC11420
Procedure, shortened: as §1

[13] = tested on: HaCaT cell line (human keratinocyte); assay: MTT cell viability assay; type: cell-based; conditions: 72 h, read-out: IC50 HaCaT
[14] = tested on: Gram-positive reference strains; assay: Broth dilution MIC/MBC, summary over Gram-positive reference strains; type: cell-based
Protocol: […]. The tests were carried out using a serial dilution method, allowing the determination of MIC (minimal concentration inhibiting bacterial growth), MBC (minimal bactericidal concentration), and MFC (minimal fungicidal concentration) values.
Antimicrobial activity was tested using the following reference strains: Staphylococcus aureus ATCC 6538 (MSSA), Staphylococcus aureus ATCC 43300 (MRSA), Staphylococcus epidermidis PCM 2118, Escherichia coli ATCC 11229, Pseudomonas aeruginosa ATCC 15442, Proteus vulgaris NCTC 4635, Enterococcus faecalis ATCC 11420, and Candida albicans ATCC 10231.
(§4) A broth dilution method was used to determine minimal inhibitory concentration (MIC) for tested compounds as recommended by Clinical Laboratory Standards Institute (CLSI) guidelines. Investigated compounds were diluted in Mueller Hinton Broth 2 (Sigma-Aldrich Co., St. Louis, MO, USA) in polypropylene 96-well plates and initial inoculum 5 × 10^5 cfu/mL were incubated at 37 °C for 18 h. MIC was taken as the lowest drug concentration at which an observable growth was inhibited. […] The loopful (10 µL) of the tested sample was transferred to Tryptic Soy Agar (TSA, Becton-Dickinson, Franklin Lakes, NJ, USA) and incubated at 37 °C for 48 h. […] Drug Solutions were made fresh on the day of the assay. All experiments were performed in triplicate.

[15] = tested on: S.aureus 56 (MSSA); assay: Broth dilution MIC/MBC, clinical MSSA isolate; type: cell-based; conditions: Staphylococcus aureus, MSSA
Description: (§5) […]. Both MRSA and MSSA strains were derived from various human infections.
(§6) […]. Five methicillin-resistant S. aureus strains were isolated from nose (n = 1), bronchoalveolar lavage (n = 1), sputum (n = 1), wound (n = 1), and blood (n = 1); five methicillin-susceptible S. aureus strains were isolated from throat (n = 1), bronchoalveolar lavage (n = 1), sputum (n = 1), abscess (n = 1), and blood (n = 1).
(§7) The identity of S. aureus isolates was confirmed with conventional methods and with Pastorex Staph-Plus latex agglutination kit (Bio-Rad, Marnes-la-Coquette, France) and verified applying the polymerase chain reaction (PCR) of S. aureus-specific region of the thermonuclease gene, nuc. Resistance to methicillin was first verified using cefoxitin disk (30 µg), and then, identified based on the presence of mecA gene. S. aureus ATCC®25923 (methicillin-susceptible) and S. aureus ATCC®43300 (MDR) were applied as the reference strains. Both the reference and clinical strains were stored at −80 °C, in Tryptic Soy Broth (TSB, Becton-Dickinson, Franklin Lakes, NJ, USA) supplemented with 15% glycerol.
as §4

[16] = tested on: S.aureus 55 (MSSA); assay: Broth dilution MIC/MBC, clinical MSSA isolate; type: cell-based; conditions: Staphylococcus aureus, MSSA
Description: as §5, §6, §7, §4

[17] = tested on: S.aureus 59 (MSSA); assay: Broth dilution MIC/MBC, clinical MSSA isolate; type: cell-based; conditions: Staphylococcus aureus, MSSA
Description: as §5, §6, §7, §4

[18] = tested on: S.aureus 58 (MSSA); assay: Broth dilution MIC/MBC, clinical MSSA isolate; type: cell-based; conditions: Staphylococcus aureus, MSSA
Description: as §5, §6, §7, §4

[19] = tested on: S.aureus 57 (MSSA); assay: Broth dilution MIC/MBC, clinical MSSA isolate; type: cell-based; conditions: Staphylococcus aureus, MSSA
Description: as §5, §6, §7, §4

[20] = tested on: clinical isolates of methicillin-resistant S. aureus (50–54) and methicillin-sensitive S. aureus (55–59); assay: Broth dilution MIC/MBC, summary over clinical S. aureus isolates; type: cell-based, Staphylococcus aureus
Description: as §5, §6, §7, §4

[21] = tested on: S.aureus 52 (MRSA); assay: Broth dilution MIC/MBC, clinical MRSA isolate; type: cell-based; conditions: Staphylococcus aureus, MRSA
Description: as §5, §6, §7, §4

[22] = tested on: S.aureus 50 (MRSA); assay: Broth dilution MIC/MBC, clinical MRSA isolate; type: cell-based; conditions: Staphylococcus aureus, MRSA
Description: as §5, §6, §7, §4

[23] = tested on: S.aureus 51 (MRSA); assay: Broth dilution MIC/MBC, clinical MRSA isolate; type: cell-based; conditions: Staphylococcus aureus, MRSA
Description: as §5, §6, §7, §4

[24] = tested on: S.aureus 53 (MRSA); assay: Broth dilution MIC/MBC, clinical MRSA isolate; type: cell-based; conditions: Staphylococcus aureus, MRSA
Description: as §5, §6, §7, §4

[25] = tested on: S.aureus 54 (MRSA); assay: Broth dilution MIC/MBC, clinical MRSA isolate; type: cell-based; conditions: Staphylococcus aureus, MRSA
Description: as §5, §6, §7, §4

Cc1cc(S(=O)(=O)NC(=O)C=Cc2ccccc2)c(SCc2cccc3ccccc23)cc1Cl [Compound 16, N-[4-Chloro-5-methyl-2-(naphthalen-1-ylmethylthio)benzenesulfonyl]cinnamamide]
19 µg/mL and 38 µM: IC50 [13]
4 to 16 µg/mL: MBC ([7]; Staphylococcus epidermidis, PCM2118, S. epidermidis PCM 2118, read-out: MBC)
87–90%: inhibition of biofilm formation [2] | inhibition of biofilm formation ([4]; MRSA 51, 4 × MIC) | inhibition of biofilm formation [5]
44%: inhibition of biofilm formation ([3]; MSSA 58, concentration equal to the MIC)
128 µg/mL: MFC [1] | MIC [8] | MIC [10] | MIC [11]
35%: inhibition of biofilm formation ([4]; MRSA 51, concentration equal to the MIC)
64 µg/mL: MIC [1]
8 µg/mL: MIC [12] | MIC [18] | MIC [24] | MIC [25]
> 128 µg/mL: MBC [6] | MBC [8] | MBC [9] | MBC [10] | MBC [11] | MBC [12] | MBC [15] | MBC [16] | MBC [17] | MBC [18] | MBC [19] | MBC ([20]; Staphylococcus aureus) | MBC [21] | MBC [22] | MBC [23] | MBC [24] | MBC [25]
86%: inhibition of biofilm formation ([3]; MSSA 58, 2 × MIC)
4 µg/mL: MIC [6] | MBC ([7]; S. epidermidis PCM 2118) | MIC ([7]; Staphylococcus epidermidis, PCM2118) | MIC [9] | MIC [15] | MIC [16] | MIC [17] | MIC [19] | MIC [21] | MIC [22] | MIC [23]
4 to 8 µg/mL: MIC [14] | MIC ([20]; Staphylococcus aureus) | MIC ([20]; summary over ten clinical MRSA and MSSA isolates (Table 4))
